Laboratory results published in patent publication US5792851A, “Human prostaglandin transporter” (Albert Einstin College of Medicine of Yeshiva University, a …, priority 1996, dated 1998).

Experiments:
[1] = target: T1, human prostaglandin transporter (hPGT) (Homo sapiens, UniProt Q92959); experiment: Inhibition of hPGT-mediated tracer PGE2 uptake in transfected HeLa cells; format: cell-based
[2] = target: T1, human prostaglandin transporter (hPGT); experiment: Timed uptake of tracer 3[H]-prostaglandins into HeLa cells expressing clone 3 (hPGT); format: cell-based; conditions: for difference between transport rates: 10 and 20 minutes; for 2-minute rank-order of uptakes: 2 minutes, 27° C., tracer 0.6-1.0 nM
rat PGT [3] = experiment: Tracer prostaglandin transport by rat PGT re-expressed in HeLa cells; format: cell-based; conditions: data not shown
rat PGT [4] = conditions: reference 36; cited from earlier work
[5] = HeLa, 10 min, read-out: percent of the control 10-min tracer PGE2 uptake

Row | Structure (SMILES) | remaining activity at 10 µM [1, 5] | remaining activity at 100 µM [1, 5] | remaining activity at 0.1 µM [1, 5] | difference between transport rates [2] | 2-minute rank-order of uptakes [2] | other results
1 | NS(=O)(=O)c1cc(C(=O)O)c(NCc2ccco2)cc1Cl [Furosemide] | 91.5 ± 3.3% | 63.3 ± 1.7% |  |  |  | 
2 | COc1ccc2c(c1)c(CC(=O)O)c(C)n2C(=O)c1ccc(Cl)cc1 [Indomethacin] | 114 ± 3.8% | 82.5 ± 1% |  |  |  | potency as inhibitor of hPGT (in words) [1]: much less effective
3 | CCCCC[C@H](O)/C=C/[C@H]1C(=O)C[C@H](O)[C@@H]1C/C=C\CCCC(=O)O [PGD2] |  |  | 47.9 ± 0.9% | essentially no difference | PGE2 >PGE1>PGF2α >PGD2 >TxB2 | transport rate of tracer relative to PGE2 (rat PGT [3]): at a rate equivalent to that of PGE2
4 | CCCCC[C@H](O)/C=C/[C@H]1[C@H](O)CC(=O)[C@@H]1CCCCCCC(=O)O [PGE1] |  |  | 50.8 ± 3.4% | essentially no difference | PGE2 >PGE1>PGF2α >PGD2 >TxB2 | 
5 | CCCCC[C@H](O)/C=C/[C@H]1[C@H](O)CC(=O)[C@@H]1C/C=C\CCCC(=O)O [PGE2] |  |  |  | essentially no difference | PGE2 >PGE1>PGF2α >PGD2 >TxB2 | 
6 | CCCCC[C@H](O)/C=C/[C@@H]1[C@@H](C/C=C\CCCC(=O)O)[C@@H](O)C[C@H]1O [PGF2α] |  |  | 45 ± 1.3% | essentially no difference | PGE2 >PGE1>PGF2α >PGD2 >TxB2 | 
7 | CCCN(CCC)S(=O)(=O)c1ccc(C(=O)O)cc1 [Probenecid] | 104 ± 5.2% | 92.8 ± 2% |  |  |  | potency as inhibitor of hPGT (in words) [1]: much less effective
8 | CCCCC[C@H](O)/C=C/[C@H]1OC(O)C[C@H](O)[C@@H]1C/C=C\CCCC(=O)O (stereo partly shown) [TxB2] |  |  |  |  | PGE2 >PGE1>PGF2α >PGD2 >TxB2 | remaining activity at 0.5 µM [1, 5]: 26.7 ± 0.1%; transport rate relative to PGE2 or PGF2α ([2]; hPGT, FIG. 2): about half that of PGE2 or PGF2α; transport rate relative to PGE2 or PGF2α (rat PGT [4]): about half that of PGE2 or PGF2α
9 | CC#CCC(C)[C@H](O)/C=C/[C@@H]1[C@H]2C/C(=C/CCCC(=O)O)C[C@H]2C[C@H]1O (stereo partly shown) [iloprost] |  |  |  |  |  | transport above baseline ([2]; 3[H]-iloprost 7.9 nM, data not shown): not transported above baseline
